Source: patent US20080207532A1, “Use of Nordihydroguaiaretic Acid Derivatives in the Treatment of Drug Resistant Cancer, Viral and Microbial Infection” (Johns Hopkins University, priority 2004, published 2008)
Several values for one entry are separate records, joined by “and”; a condition that tells them apart may be missing. Identical values can stand only once. Like-named read-outs stand apart in the source and are kept apart here.

Legend:
solubility in water = assay type: physicochemical
MDR1 mRNA = experiment: RT-PCR of MDR1 mRNA in NCI/ADR-RES cells; assay type: cell-based, human; conditions: 20 μM M4N, three days
Protocol: (§1) Total RNA was isolated using the Trizol Reagent (Invitrogen, Carlsbad, Calif.). RT-PCR was carried out with the Superscript II One-Step RT-PCR system with Platinum Taq DNA Polymerase (Invitrogen) according to the manufacturer's protocol using oligonucleotide primers specific for MDR1: […]
The RT-PCR products were separated by agarose gel electrophoresis and stained with ethidium bromide. Relative band intensities were quantified by ImageJ software (NIH, Bethesda, Md.).
We next examined the effect of M4N on MDR1 gene expression to determine whether the observed synergy between M4N and Dox and paclitaxel in multidrug resistant cells is the result of reversal of the MDR phenotype. We postulated that M4N, through its ability to inhibit Sp1 binding, might down regulate MDR1 gene expression. To examine this possibility, NCI/ADR-RES cells were exposed to 0, 5, 10 and 20 μM M4N for three days, after which total RNA and protein were examined for levels of MDR1 mRNA and Pgp. […] The levels of Pgp were normalized to cyclin B1, whose expression, according to our previous results, is unaffected by M4N (4, 5).

MDR1 mRNA and Pgp = experiment: Dox induction of MDR1 gene expression in MCF-7 cells; assay type: cell-based, human; conditions: MCF-7, 0.05 μM Dox with 5.0 μM M4N, two days
Protocol: as §1
Cultured cells were incubated in a solution of 10 mM EDTA and 10 mM EGTA in PBS and then harvested by scraping with a Teflon® cell scraper. The cells were pelleted and lysed in modified RIPA buffer [50 mM Tris-HCl (pH 7.4), 1% NP-40, 0.25% Na-deoxycholate, 150 mM NaCl, 1 mM EDTA (pH 8.0)] containing Protease Inhibitor Cocktail (Sigma Chemical Co.). The lysate was cleared by centrifligation and protein concentrations were determined with the Bio-Rad Protein Assay (Bio-Rad Laboratories, Hercules, Calif.). Protein samples were separated by SDS-PAGE and electroblofted to a Hybond enhanced chemiluminescence (ECL) nitrocellulose membrane (Amersham) with a semidry blotting apparatus and detected as described in the instruction manual of the ECL Western Blotting System (Amersham). The antibodies used were primary rabbit polyclonal antibodies against Pgp and cyclin B and a horseradish […] conjugated secondary antibody (Santa Cruz Biotechnology). Relative band intensities were measured with ImageJ software. […]

NCI/ADR-RES cells [1] = experiment: cell proliferation, NCI/ADR-RES cells in culture; assay type: cell-based, human; conditions: 72 hours
[2] = system: NCI/ADR-RES multidrug resistant breast cancer xenografts; experiment: combination therapy against NCI/ADR-RES xenografts in nude mice; conditions: two weeks
Protocol: Nude mice bearing NCI/ADR-RES multidrug resistant breast cancer xenografts were used as a model for combination therapy to further examine synergy between M4N and paclitaxel.
T-cell deficient female nude (nu/nu) mice, 5-6 weeks of age, were purchased from Charles River Laboratories (Wilmington, Mass.) and were housed in a pathogen-free room. All experiments involving the mice were carried out in accordance with the Johns Hopkins University Animal Care and Use Committee guideline. The mice were implanted subcutaneously in both flanks with 1×10^6 NCI/ADR-RES cells suspended in Hank's balanced salt solution (HBSS). […] For intraperitoneal (i.p.) administration, M4N, maltose-M3N and paclitaxel were dissolved in a recently developed reduced cremophor solution containing 20% (v) dehydrated ethanol, 20% (v) Cremophor EL, PEG 300, <11% (v) Tween 80 (22). Daily injections of 0.05 ml were performed for each drug and drug combination.
Tumors were measured in two perpendicular dimensions once every seven days, and the tumor volumes were calculated according to the following formula: […]
where a is the width of the tumor (smaller diameter) and b is the length (larger diameter) (23). The mean tumor volume and standard error were calculated for each treatment group. Relative mean tumor volumes, (V/V0), where V is the mean tumor volume at a particular time and V0 is the mean tumor volume at day 0 (23), were determined and used to assess tumor growth inhibition (T/C value) using the following equation:
T/C(%)=Relative Mean Tumor Volume of treated/Relative Mean Volume of control×100.
The NCI standard for the minimal level for antitumor activity (T/C≦42%) was adopted (25). At the termination of the experiment the tumors were excised and fixed in formaldehyde. Tissue samples were then sent to Paragon Bioservices for histology and immunohistochemistry using antibodies against human P-glycoprotein (Pgp).
Two dosage regimens of M4N and paclitaxel, both with a constant molar ratio of 20:1 (M4N:paclitaxel), were employed as determined by in vitro testing to be synergistic as shown in Table 1. The 8 and 16 μmol m^2 doses of pactitaxel were submaximal based on values from other studies (22) and the M4N doses of 160 and 320 μmol/m^2 were arrived at by decreasing the maximum tolerated dose used in our previous study with MCF-7 breast cancer xenografts (5). An additional NDGA derivative was also tested. Maltose-M3N was developed as a water soluble alternative to M4N, however for consistency it was dissolved in the same reduced cremophor solvent system as M4N and paclitaxel for this study.

NCI/ADR-RES cells [3] = experiment: SRB cytotoxicity assay with median-effect / combination index analysis; assay type: cell-based, human; conditions: for IC50: NCI/ADR-RES
Protocol: The multidrug resistant cell line, NCI/ADR-RES, was obtained from the DTP Human Tumor Cell Line Screen (Developmental Therapeutics Program, NCI). Both cell lines were maintained in Dulbecco's modified Eagle's medium supplemented with 10% fetal bovine serum and the antibiotics penicillin and streptomycin. […] Stocks of M4N and paclitaxel (Sigma-Aldrich, St. Louis, Mo.) were prepared in dimethyl sulfoxide (DMSO) and added to the cell culture medium so that the final concentration of DMSO was one percent. Aqueous stocks of Dox (Sigma-Aldrich) were prepared and filter sterilized before dilution into growth medium.
NCI/ADR-RES cells were seeded at a density of 2×10^4 cells per well in 24 well plates and 24 h later the growth medium was supplemented with M4N, Dox, paclitaxel or combinations of M4N with Dox or M4N with paclitaxel. MAN was used at concentrations between 1.5 and 48 μM. For the combination of MAN and Dox a constant molar ratio of 2.4:1 (M4N:Dox) was used and for M4N and paclitaxel the ratio was 20:1 (M4N:paclitaxel). Three days after drug addition cytoxicity was assessed with the SRB assay (14) with 540 and 690 nm (reference) absorbance measured with a Power Wave 200 microplate reader (Bio-Tek Instruments, Winooski, Vt.).
The combination index (CD isobologram method of Chou and Talalay (16, 17, 18, 19) which is based on the median effect principle, was used to calculate synergism or antagonism for the combined drug effects. Dose-effect curves for each drug, singly and in combination, in serially-diluted concentrations were plotted using the median-effect equation and plot (18, 20) and the CI equation and plot (19). CI values at different effect and dose levels and isobolograms were generated automatically using the computer software CompuSyn (20). With this method, additive, synergistic or antagonistic effects are indicated by CI values of 1, <1, and >1, respectively. Comparison of the ratio of doses required to reach a given effect level for each single drug and the drugs in combination was used to determine the dose-reduction index (DRI).

[4] = higher regimen: M4N or Mal-M3N 320, Px 16 μmoles/m^2, i.p. daily
[5] = lower regimen: M4N 160, Px 8 μmoles/m^2, i.p. daily
[6] = M4N/Dox combination 2.4:1, NCI/ADR-RES
[7] = M4N/paclitaxel combination 20:1, NCI/ADR-RES

COc1ccc(C[C@@H](C)[C@@H](C)Cc2ccc(OC)c(OC)c2)cc1OC [M4N, tetra-o-methyl nordihydroguaiaretic acid]
solubility in aqueous solution (solubility in water): limited solubility
level of MDR1 mRNA, of the untreated value, normalized to GAPDH (MDR1 mRNA): 36.3%
induction of MDR1 expression by Dox (MDR1 mRNA and Pgp): abolished
M4N required to achieve a total cell arrest (NCI/ADR-RES cells [1]): 40 µM
Deaths [2, 4]: 0/7
Relative Mean Tumor Volume [2, 4]: 1.33
T/C % [2, 4]: 50.8%
Deaths [2, 5]: 0/7
Mean Body Weight Change [2, 5]: +0.2 g/mouse
Relative Mean Tumor Volume [2, 5]: 1.70
T/C % [2, 5]: 64.9%
DRI value at ED75 (NCI/ADR-RES cells [3]; [6]): 5.94
DRI value at ED90 (NCI/ADR-RES cells [3]; [6]): 24.26
DRI value at ED95 (NCI/ADR-RES cells [3]; [6]): 63.16
DRI value at ED75 (NCI/ADR-RES cells [3]; [7]): 3.98
DRI value at ED90 (NCI/ADR-RES cells [3]; [7]): 5.76
DRI value at ED95 (NCI/ADR-RES cells [3]; [7]): 7.40
IC50 (NCI/ADR-RES cells [3]; three days, combinations at molar ratio 2.4:1 (M4N:Dox) or 20:1 (M4N:paclitaxel), given as M4N + second drug, read-out: Dm, median effect dose (concentration that inhibits cell growth by 50%)): 9.14 µM and 8.19 µM
IC50 (NCI/ADR-RES cells [3]; single agent, read-out: average IC50): 8.67 µM
